ChEMBL document CHEMBL1201862, “PubChem BioAssay data set” (2004)
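The compound was tested at five concentrations on cells cultured in 96-well plates, with a 48-hour exposure period. GI50 = concentration required for 50% inhibition of growth.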 Active and inactive are the calls of the source. Cut-off read from the data, not from the text of the source: active = GI50 up to about 1.1 µM and inactive = higher.

Assays:
Test in all cases: NCI anticancer screen, dose series, 48 h
SNB-19 = tested on: SNB-19
COLO 205 = tested on: COLO 205
CCRF-CEM = tested on: CCRF-CEM
SN12C = tested on: SN12C
EKVX = tested on: EKVX
SK-MEL-2 = tested on: SK-MEL-2
MCF7 = tested on: MCF7
SW-620 = tested on: SW-620
MOLT-4 = tested on: MOLT-4
NCI-H23 = tested on: NCI-H23
SR = tested on: SR
SK-MEL-5 = tested on: SK-MEL-5
SF-295 = tested on: SF-295
UACC-62 = tested on: UACC-62
OVCAR-3 = tested on: OVCAR-3
MDA-MB-435 = tested on: MDA-MB-435
MDA-N = tested on: MDA-N
HOP-92 = tested on: HOP-92
SK-OV-3 = tested on: SK-OV-3
MDA-MB-231 = tested on: MDA-MB-231

Measured: GI50

CC1C(c2ccc3c(c2)OCO3)c2cc3c(cc2OC1N1CCCCC1)OCO3 (stereo not drawn)
inactive: SNB-19 48.9 µM | COLO 205 36.5 µM | CCRF-CEM 35.2 µM | SN12C > 100 µM | EKVX 66.2 µM | SK-MEL-2 33.6 µM | MCF7 65.9 µM | SW-620 55 µM | MOLT-4 36.7 µM | NCI-H23 60.8 µM | SR 37.8 µM | SK-MEL-5 54.6 µM | SF-295 30.6 µM | UACC-62 88.9 µM | OVCAR-3 41.6 µM | MDA-MB-435 25.2 µM | MDA-N 20.8 µM

Cc1ccc(S(=O)(=O)SCc2ccccc2)cc1
inactive: SNB-19 29.7 µM | COLO 205 14.3 µM | HOP-92 22.7 µM | SK-OV-3 52.2 µM | CCRF-CEM 2.33 µM | SN12C 20.8 µM | EKVX 43.8 µM | SK-MEL-2 27 µM | SW-620 4.31 µM | MOLT-4 2.32 µM | NCI-H23 19 µM | SR 28 µM | SK-MEL-5 25.6 µM | SF-295 30.3 µM | UACC-62 29.4 µM | OVCAR-3 20.8 µM

CC(C)(C)OC(=O)NNC(=O)C1Cc2ccccc2OC1=O (stereo not drawn)
inactive: SNB-19 > 100 µM | SK-OV-3 > 100 µM | SN12C > 100 µM | EKVX > 100 µM | SK-MEL-2 > 100 µM | SW-620 > 100 µM | MOLT-4 > 100 µM | NCI-H23 > 100 µM | SR > 100 µM | SK-MEL-5 > 100 µM | SF-295 > 100 µM | UACC-62 > 100 µM | OVCAR-3 > 100 µM | MDA-MB-435 > 100 µM | MDA-N > 100 µM

Cc1ccccc1NC(=O)Cc1nc2ccccc2s1
inactive: SNB-19 29.7 µM | COLO 205 30.7 µM | SK-OV-3 24.4 µM | CCRF-CEM 9.51 µM | SN12C 16.6 µM | EKVX 19.7 µM | SK-MEL-2 16 µM | SW-620 19.8 µM | MOLT-4 17.9 µM | NCI-H23 14.7 µM | SR 13.1 µM | SK-MEL-5 51.2 µM | SF-295 15.8 µM | UACC-62 19.4 µM | OVCAR-3 18 µM

[Zn+2][N+]12CCN3CCN4CCN(CC1)[PH]432 (stereo not drawn)
inactive: SNB-19 > 100 µM | COLO 205 > 100 µM | SK-OV-3 > 100 µM | CCRF-CEM > 100 µM | SN12C > 100 µM | EKVX > 100 µM | SK-MEL-2 > 100 µM | SW-620 > 100 µM | MOLT-4 > 100 µM | NCI-H23 > 100 µM | SR > 100 µM | SK-MEL-5 > 100 µM | SF-295 > 100 µM | UACC-62 > 100 µM | OVCAR-3 > 100 µM

CC(=O)C(C)CCOC1(C)OCCC1C (stereo not drawn)
inactive: SNB-19 > 100 µM | COLO 205 65 µM | HOP-92 > 100 µM | SK-OV-3 > 100 µM | CCRF-CEM > 100 µM | SN12C > 100 µM | EKVX > 100 µM | SK-MEL-2 > 100 µM | MCF7 > 100 µM | SW-620 > 100 µM | MOLT-4 > 100 µM | NCI-H23 > 100 µM | SR > 100 µM | SK-MEL-5 > 100 µM | MDA-MB-231 > 100 µM | SF-295 > 100 µM | UACC-62 > 100 µM | OVCAR-3 > 100 µM | MDA-MB-435 > 100 µM

O=C1C2=Nc3ccccc3C(O)(C(=O)O)N2c2ccccc21 (stereo not drawn)
inactive: COLO 205 16.4 µM | HOP-92 32.7 µM | CCRF-CEM 21.9 µM | SN12C 28.8 µM | EKVX 60.7 µM | SK-MEL-2 13.3 µM | MCF7 19.9 µM | SW-620 19.4 µM | MOLT-4 17.6 µM | NCI-H23 24.1 µM | SR 14.6 µM | SK-MEL-5 14 µM | MDA-MB-231 17.2 µM | SF-295 17.2 µM | OVCAR-3 14 µM | MDA-MB-435 2.26 µM

COc1ccc2c(c1)[n+]([O-])c(-c1ccc(Br)cc1)c(N)[n+]2[O-]
inactive: SNB-19 > 100 µM | COLO 205 18.9 µM | HOP-92 > 100 µM | SK-OV-3 92.7 µM | CCRF-CEM 50.4 µM | SN12C 47 µM | EKVX 51.1 µM | SK-MEL-2 32.4 µM | SW-620 40.2 µM | MOLT-4 36.8 µM | NCI-H23 22.4 µM | SR 36.6 µM | SK-MEL-5 17.7 µM | SF-295 96.2 µM | OVCAR-3 35.4 µM
